Measurements published in ChEMBL document CHEMBL5724558, “Image-based profiling of drug vulnerabilities in CRC organoids” (2024).
Several values for one entry are separate records, joined by “and”; a condition that tells them apart may be missing. Equal values may be shown once.

Tests used:
Type in all cases: functional, Homo sapiens
Parameters in all cases: dose or concentration left out as unconfirmed
Colon cancer organoid [1] = assay: Image-based profiling of donated chemical probes and chemogenomic kinase set in O09 CRC organoid. Image analysis is performed on the sum area metric, and the data were normalized to the DMSO control. After imaging the organoid viability is measured using the OneGloEX Luciferase Assay System. The normalized viability data and sum area are reported.
Colon cancer organoid [2] = assay: Image-based profiling of donated chemical probes and chemogenomic kinase set in O06 CRC organoid. Image analysis is performed on the sum area metric, and the data were normalized to the DMSO control. After imaging the organoid viability is measured using the OneGloEX Luciferase Assay System. The normalized viability data and sum area are reported.
Colon cancer organoid [3] = assay: Image-based profiling of donated chemical probes and chemogenomic kinase set in O21 CRC organoid. Image analysis is performed on the sum area metric, and the data were normalized to the DMSO control. After imaging the organoid viability is measured using the OneGloEX Luciferase Assay System. The normalized viability data and sum area are reported.

| SMILES | Cell Viability (Colon cancer organoid [1]; Replication number 1) | Cell Viability (Colon cancer organoid [1]; Replication number 2) | Cell Viability (Colon cancer organoid [2]; Replication number 1) | Cell Viability (Colon cancer organoid [2]; Replication number 2) | Cell Viability (Colon cancer organoid [3]; Replication number 1) | Cell Viability (Colon cancer organoid [3]; Replication number 2) |
| --- | --- | --- | --- | --- | --- | --- |
| O=C(NOCC1CC1)c1ccc(F)c(F)c1Nc1ccc(I)cc1Cl [CI-1040] | 15.162% and 31.6659% | 27.5568% and 31.5843% | 3.322% and 9.147% | 3.495% and 11.5373% | 35.0082% and 32.446% | 40.3855% and 37.5387% |
| COc1ccc(Cn2ccc3ccc(C(=O)NO)cc32)cc1 | 110.805% and 94.5904% | 117.665% and 84.3839% | 150.267% and 98.5772% | 160.829% and 118.056% | 103% and 112.867% | 100.715% and 96.6587% |
| c1ccc2oc(-c3csc(C4CCN(Cc5nc6ncccc6[nH]5)CC4)n3)cc2c1 | 82.621% and 84.4067% | 113.991% and 112.807% | 71.3349% and 100.567% | 106.728% and 127.102% | 94.2166% and 105.311% | 87.22% and 87.1856% |
| Cn1cncc1[C@@](O)(COc1ccc(C#N)cc1-c1ccc(OC(F)(F)F)cc1)c1ccc(C#N)cc1 [A-108] | 62.58% and 86.4879% | 152.883% and 128.222% | 98.5597% and 105.855% | 74.5028% and 111.105% | 75.0431% and 83.2471% | 104.838% and 112.755% |
| CCOc1cc(N2CCC(O)CC2)ccc1Nc1ncc2c(n1)N(C)c1ccccc1C(=O)N2C | 50.6693% and 60.5891% | 44.9186% and 56.4198% | 105.657% and 158.464% | 54.5485% and 108.792% | 109.771% and 116.516% | 106.608% and 109.968% |
| Cc1nc(-c2cn3c(n2)-c2ccc(-c4cnn(C(C)(C)C(N)=O)c4)cc2OCC3)n(C(C)C)n1 [TASELISIB] | 40.2908% and 23.1884% | 43.7188% and 27.2651% | 24.4584% and 46.9606% | 18.3941% and 28.1748% | 74.483% and 67.4564% | 68.3353% and 63.3321% |
| C[C@H](c1ccc(F)cc1)N(Cc1ccc(Cl)c(C(=O)O)c1)C(=O)c1cnc2ccccc2c1 [PF-05257137] | 171.765% and 153.146% | 140.713% and 101.643% | 112.636% and 114.286% | 58.4583% and 44.0628% | 104.015% and 83.2471% | 99.7446% and 91.3265% |
| CN1CCN(Cc2cc(NC(=O)c3ccc4c(c3)CN(c3ccccc3)CC4)cc(C(F)(F)F)c2)CC1 | 73.1959% and 82.4072% | 164.971% and 111.856% | 104.972% and 109.917% | 87.5694% and 92.1973% | 111.963% and 96.9088% | 113.098% and 109.943% |
| Cc1nccc(COC(=O)N2C[C@@H]3[C@@H](CNC(=O)c4ccc5[nH]nnc5c4)[C@@H]3C2)n1 [BI 3017] | 118.304% and 89.116% | 133.367% and 124.133% | 85.9577% and 77.5176% | 101.815% and 101.392% | 96.5552% and 87.3221% | 97.9165% and 92.8571% |
| CNCc1ccccc1-c1csc([C@@H](C)Nc2nc(C)nc3cc(OC)c(OC)cc23)c1 [BAY-293] | 109.186% and 103.451% | 63.3306% and 79.153% |  | 9.059% and 19.7098% | 45.2566% and 84.9935% | 50.5698% and 76.0204% |
| O=C1[C@H](Cc2ccc(O)cc2)N2C(=O)CCN(C(=O)NCc3ccccc3)[C@H]2CN1Cc1cccc2ccccc12 | 80.9835% and 70.711% | 121.345% and 94.0767% | 96.6982% and 93.2617% | 106.282% and 104.195% | 89.9628% and 92.2926% | 85.8858% and 90.2148% |
| CC1=C(C(=O)Nc2cc3cn[nH]c3cc2F)C(c2ccc(C(F)(F)F)cc2)CC(=O)N1 (stereo not given) | 137.27% and 97.7404% | 200.569% and 118.509% | 108.292% and 112.394% | 105.064% and 92.1337% | 120.369% and 99.2335% | 116.368% and 107.089% |
| Cc1cc(C)cc([C@H]2c3cc(C)ccc3NC(=O)CN2C(=O)c2ccc(Br)s2)c1 | 143.943% and 101.546% | 157.398% and 102.629% | 159.149% and 112.832% | 176.911% and 106.346% | 126.442% and 119.334% | 102.791% and 105.788% |
| Cn1cc(-c2ccc3occ(-c4cccc(-c5ccncc5)c4)c3n2)cn1 | 82.6672% and 85.8718% | 87.0318% and 75.2306% | 105.822% and 114.901% | 68.0406% and 107.425% | 96.3699% and 105.976% | 129.888% and 115.611% |
| COCC(=O)NC/C=C/c1ccc2ncnc(Nc3ccc(Oc4ccc(C)nc4)c(C)c3)c2c1 [CP-724714] | 68.0715% and 78.0427% | 150.035% and 112.57% | 34.9461% and 62.9851% | 41.6567% and 67.0437% | 88.8144% and 89.7561% | 117.053% and 106.513% |
| O=C(O)c1ccc(-c2c[nH]c3ncc(-c4ccccc4)cc23)cc1C1CCCC1 [GSK-650394] | 86.6407% and 76.4679% | 121.957% and 104.927% | 96.4947% and 115.731% | 112.452% and 109.917% | 104.512% and 92.3751% | 123.401% and 109.943% |
| Cc1nc(N2CC[C@H](O)C2)ncc1-c1cc(C(F)(F)F)cc2[nH]ncc12 | 63.142% and 75.4977% | 55.6466% and 44.9799% | 99.241% and 111.944% | 84.0147% and 88.1256% | 102.375% and 86.1578% | 90.0065% and 80.6122% |
| O[C@H]1CC[C@H](Nc2ncc3nc(Nc4c(F)cc(F)cc4F)n([C@H]4CCOC4)c3n2)CC1 [TANZISERTIB] | 161.464% and 97.9897% | 183.086% and 108.79% | 85.5595% and 88.3572% | 111.493% and 110.437% | 99.1681% and 86.9686% | 119.868% and 95.5739% |
| Cc1c(NC(=O)c2cc(C(N)=O)nc3cc(F)ccc23)c(C(F)(F)F)nn1Cc1ccc(C#N)cc1 [BAY-876] | 36.4456% and 33.4484% | 36.255% and 13.5816% | 10.662% and 26.9321% | 13.3809% and 14.2138% | 21.7392% and 19.9094% | 22.1552% and 34.1837% |
| C=CC(=O)Nc1ccc2[nH]c(=O)n(C3CCN(C(=O)c4ccc(-c5nc6cc[nH]c(=O)c6cc5-c5ccccc5)cc4)CC3)c2c1 | 86.8441% and 100.234% | 90.0124% and 91.2435% | 120.248% and 109.056% | 107.251% and 98.7147% | 115.206% and 106.481% | 111.195% and 142.785% |
| CC(=O)Nc1nc(CN2CCC[C@H](Cc3cc(C)nc(C)c3)C2)cs1 [JNJ-73924149] | 161.492% and 89.8313% | 217.991% and 98.2452% | 110.009% and 115.731% | 115.696% and 107.702% | 83.219% and 91.2416% | 110.349% and 95.2087% |
